Source: PubChem BioAssay AID330 (DTP/NCI, 2004)
Values joined by “and” are separate entries in the source; they are usually repeats but may differ in a detail not shown here. Equal values may be shown once. Toxic doses and inconclusive results are not listed.

Test system: P388 leukemia ip, CD2F1 mice, survival T/C
Assay: NCI In Vivo Anticancer Drug Screen. Data for tumor model P388 Leukemia (intraperitoneal) in CD2F1 (CDF1) mice
Settings: endpoint: median survival time, higher = longer survival
In short: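 Mice carrying the transplanted tumor received test compound or vehicle. Survival was recorded in each group, and the value is the treated-group measurement divided by that of the vehicle-treated control group.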

[1] = dose: 100.0 mg/kg/injection, schedule: Q01DX009 (ip), vehicle: saline with Tween-80
[2] = dose: 25.0 mg/kg/injection, schedule: Q01DX009 (ip), vehicle: Klucel (hydroxypropylcellulose) (HPC)
[3] = dose: 50.0 mg/kg/injection, schedule: Q01DX009 (ip), vehicle: saline
[4] = dose: 12.5 mg/kg/injection, schedule: Q01DX009 (ip), vehicle: saline with Tween-80
[5] = dose: 25.0 mg/kg/injection, schedule: Q01DX009 (ip), vehicle: saline with Tween-80
[6] = dose: 50.0 mg/kg/injection, schedule: Q01DX009 (ip), vehicle: saline with Tween-80
[7] = dose: 60.0 mg/kg/injection, schedule: Q01DX005 (ip), vehicle: Klucel (hydroxypropylcellulose) (HPC)
[8] = dose: 400.0 mg/kg/injection, schedule: Q01DX005 (ip), vehicle: Klucel (hydroxypropylcellulose) (HPC)
[9] = dose: 100.0 mg/kg/injection, schedule: Q01DX001 (ip), vehicle: saline with Tween-80
[10] = dose: 200.0 mg/kg/injection, schedule: Q01DX001 (ip), vehicle: saline with Tween-80
[11] = dose: 400.0 mg/kg/injection, schedule: Q01DX001 (ip), vehicle: saline with Tween-80
[12] = dose: 6.25 mg/kg/injection, schedule: Q01DX009 (ip), vehicle: saline with Tween-80
[13] = dose: 50.0 mg/kg/injection, schedule: Q01DX005 (ip), vehicle: saline with Tween-80
[14] = dose: 100.0 mg/kg/injection, schedule: Q01DX005 (ip), vehicle: saline with Tween-80

CC1OC(OCC2OC(Oc3c(-c4ccc(O)cc4)oc4cc(OC5OC(C)C(O)C(O)C5O)cc(O)c4c3=O)C(O)C(O)C2O)C(O)C(O)C1O (centres undefined) was tested, and the T/C [1] was 95 % of control, the T/C (dose: 100.0 mg/kg/injection, schedule: Q04DX003 (ip), vehicle: saline sonified) was 90 % of control and the T/C (dose: 200.0 mg/kg/injection, schedule: Q01DX009 (ip), vehicle: saline with Tween-80) was 95 % of control. The T/C (dose: 200.0 mg/kg/injection, schedule: Q04DX003 (ip), vehicle: saline sonified) was 90 % of control, the T/C (dose: 400.0 mg/kg/injection, schedule: Q01DX009 (ip), vehicle: saline with Tween-80) was 95 % of control and the T/C (dose: 400.0 mg/kg/injection, schedule: Q04DX003 (ip), vehicle: saline sonified) was 90 % of control.
O=c1c(N=Nc2ccccc2Cl)c(O)n(-c2ccc(Br)cc2)c(=S)n1-c1ccccc1 was tested, and the T/C (dose: 100.0 mg/kg/injection, schedule: Q04DX002 (ip), vehicle: saline with Tween-80) was 96 % of control, the T/C (dose: 200.0 mg/kg/injection, schedule: Q04DX002 (ip), vehicle: saline with Tween-80) was 90 % of control and the T/C (dose: 400.0 mg/kg/injection, schedule: Q04DX002 (ip), vehicle: saline with Tween-80) was 90 % of control.
In the case of Cc1ccc(S(=O)(=O)CC(=O)CC(=O)C(=O)Nc2ccc(C)cc2C)cc1, the T/C (dose: 60.0 mg/kg/injection, schedule: Q01DX005 (ip), vehicle: saline with Tween-80) is reported as 108 % of control, the T/C (dose: 120.0 mg/kg/injection, schedule: Q01DX005 (ip), vehicle: saline with Tween-80) is reported as 106 % of control and the T/C (dose: 240.0 mg/kg/injection, schedule: Q01DX005 (ip), vehicle: saline with Tween-80) is reported as 99 % of control.
O=C(Nc1ccccc1)Oc1ccc[nH]c1=O was tested, and the T/C [2] was 117 % of control and 122 % of control, the T/C (dose: 25.0 mg/kg/injection, schedule: Q01DX009 (ip), vehicle: saline) was 113 % of control and 120 % of control and the T/C (dose: 50.0 mg/kg/injection, schedule: Q01DX009 (ip), vehicle: Klucel (hydroxypropylcellulose) (HPC)) was 117 % of control and 123 % of control. The T/C [3] was 118 % of control and the T/C (dose: 100.0 mg/kg/injection, schedule: Q01DX009 (ip), vehicle: Klucel (hydroxypropylcellulose) (HPC)) was 87 % of control.
For O=C1c2ccsc2C(=O)c2ccsc21, the T/C [4] was 101 % of control, the T/C [5] was 105 % of control and the T/C [6] was 101 % of control. For the same compound, the T/C [1] was 99 % of control.
C=C1c2cccc(O)c2C(O)=C2C(=O)[C@]3(O)C(O)=C(C(N)=O)C(=O)[C@@H](N(C)C)[C@@H]3[C@@H](O)[C@H]12 was tested, and the T/C (dose: 21.6 mg/kg/injection, schedule: Q01DX005 (ip), vehicle: Klucel (hydroxypropylcellulose) (HPC)) was 105 % of control, the T/C (dose: 25.0 mg/kg/injection, schedule: Q01DX005 (ip), vehicle: Klucel (hydroxypropylcellulose) (HPC)) was 105 % of control and 115 % of control and the T/C (dose: 36.0 mg/kg/injection, schedule: Q01DX005 (ip), vehicle: Klucel (hydroxypropylcellulose) (HPC)) was 99 % of control and 106 % of control. For the same compound, the T/C [7] was 102 % of control and 97 % of control, the T/C (dose: 166.66 mg/kg/injection, schedule: Q01DX005 (ip), vehicle: Klucel (hydroxypropylcellulose) (HPC)) was 115 % of control and the T/C (dose: 166.67 mg/kg/injection, schedule: Q01DX005 (ip), vehicle: Klucel (hydroxypropylcellulose) (HPC)) was 112 % of control. For the same compound, the T/C [8] was 87 % of control.
With CNC(=O)Sc1nnnc2ccccc12 the T/C [9] was 109 % of control, the T/C [10] was 104 % of control and the T/C [11] was 118 % of control.
For COc1ccc(/C=C/C(=O)C(CN(C)C)CN(C)C)cc1OC, the T/C (dose: 0.78 mg/kg/injection, schedule: Q01DX005 (ip), vehicle: Klucel (hydroxypropylcellulose) (HPC)) was 106 % of control, the T/C (dose: 1.56 mg/kg/injection, schedule: Q01DX005 (ip), vehicle: Klucel (hydroxypropylcellulose) (HPC)) was 102 % of control and the T/C (dose: 3.12 mg/kg/injection, schedule: Q01DX005 (ip), vehicle: Klucel (hydroxypropylcellulose) (HPC)) was 104 % of control.
Oc1c(Cl)cc(Cl)cc1C=NCCSc1ccc(Cl)cc1 was tested, and the T/C (dose: 50.0 mg/kg/injection, schedule: Q01DX005 (ip), vehicle: Klucel (hydroxypropylcellulose) (HPC)) was 99 % of control and 108 % of control and 111 % of control, the T/C (dose: 100.0 mg/kg/injection, schedule: Q01DX005 (ip), vehicle: DMSO) was 115 % of control and the T/C (dose: 100.0 mg/kg/injection, schedule: Q01DX005 (ip), vehicle: Klucel (hydroxypropylcellulose) (HPC)) was 105 % of control and 115 % of control and 93 % of control. For the same compound, the T/C (dose: 200.0 mg/kg/injection, schedule: Q01DX005 (ip), vehicle: DMSO) was 117 % of control, the T/C (dose: 400.0 mg/kg/injection, schedule: Q01DX005 (ip), vehicle: DMSO) was 118 % of control and the T/C [8] was 101 % of control and 120 % of control. The T/C (dose: 600.0 mg/kg/injection, schedule: Q01DX005 (ip), vehicle: DMSO) was 108 % of control.
In the case of C=C1SC(=Nc2ccc(Cl)cc2)N(c2nc(Cl)nc(Cl)n2)C12CCCCC2, the T/C [3] is reported as 98 % of control, the T/C (dose: 100.0 mg/kg/injection, schedule: Q01DX009 (ip), vehicle: saline) is reported as 90 % of control and the T/C (dose: 200.0 mg/kg/injection, schedule: Q01DX009 (ip), vehicle: saline) is reported as 89 % of control.
For CC(=O)OCC1=CCCC1=O, the T/C [2] was 111 % of control.
With CSC(C=P(c1ccccc1)(c1ccccc1)c1ccccc1)=Nc1ccccc1 the T/C [12] was 101 % of control, the T/C [4] was 101 % of control and the T/C [5] was 102 % of control and 103 % of control.
With CC1=CCC(C)C(C)(C)C1CC/C(C)=C/CCC1(C)C(CCCO)/C(=C(\C)C=O)CCC1(C)O (centres undefined) the T/C (dose: 4.5 mg/kg/injection, schedule: Q01DX005 (ip), vehicle: Klucel (hydroxypropylcellulose) (HPC)) was 152 % of control.
For C[CH2][Sn]([CH2]C)([N]=C=S)[N]=C=S, the T/C (dose: 3.12 mg/kg/injection, schedule: Q01DX009 (ip), vehicle: saline) was 99 % of control and 100 % of control and the T/C (dose: 6.25 mg/kg/injection, schedule: Q01DX009 (ip), vehicle: saline) was 86 % of control and 93 % of control.
In the case of O=Cc1cc(/C=N/Nc2ccccc2C(=O)O)nc2[nH]c(=O)ccc12, the T/C (dose: 100.0 mg/kg/injection, schedule: Q04DX002 (ip), vehicle: Klucel (hydroxypropylcellulose) (HPC)) is reported as 107 % of control, the T/C (dose: 200.0 mg/kg/injection, schedule: Q04DX002 (ip), vehicle: Klucel (hydroxypropylcellulose) (HPC)) is reported as 102 % of control and the T/C (dose: 400.0 mg/kg/injection, schedule: Q04DX002 (ip), vehicle: Klucel (hydroxypropylcellulose) (HPC)) is reported as 101 % of control.
With O=C1NC(Cc2ccccc2)C(=O)N2CSCC12 (centres undefined) the T/C (dose: 100.0 mg/kg/injection, schedule: Q01DX001 (ip), vehicle: Klucel (hydroxypropylcellulose) (HPC)) was 94 % of control, the T/C (dose: 200.0 mg/kg/injection, schedule: Q01DX001 (ip), vehicle: Klucel (hydroxypropylcellulose) (HPC)) was 99 % of control and the T/C (dose: 400.0 mg/kg/injection, schedule: Q01DX001 (ip), vehicle: Klucel (hydroxypropylcellulose) (HPC)) was 105 % of control.
In the case of OC1(C(O)(c2ccc(-c3ccccc3)cc2)c2ccc(-c3ccccc3)cc2)CCCCC1, the T/C [13] is reported as 90 % of control and the T/C [14] is reported as 87 % of control.
For CN1C(=O)C(CC(=O)O)(Cc2ccccc2)N(C(=O)c2ccccc2)[C@H]1C(C)(C)C (some centres undefined), the T/C [9] was 112 % of control, the T/C [10] was 94 % of control and the T/C [11] was 108 % of control.
CSCNC(=O)Nc1ccccc1 was tested, and the T/C [13] was 98 % of control, the T/C [14] was 100 % of control and the T/C (dose: 200.0 mg/kg/injection, schedule: Q01DX005 (ip), vehicle: saline with Tween-80) was 104 % of control.
For CCCCCCCCCCCCSC1=C(Cl)C(=O)C(OC)=C(OC)C1=O, the T/C (dose: 6.0 mg/kg/injection, schedule: Q01DX Z (ip), vehicle: saline) was 103 % of control, the T/C [12] was 105 % of control and the T/C (dose: 12.0 mg/kg/injection, schedule: Q01DX Z (ip), vehicle: saline) was 100 % of control. The T/C [4] was 108 % of control, the T/C [5] was 121 % of control and the T/C (dose: 25.0 mg/kg/injection, schedule: Q01DX Z (ip), vehicle: saline) was 100 % of control. The T/C [6] was 119 % of control and the T/C (dose: 50.0 mg/kg/injection, schedule: Q01DX Z (ip), vehicle: saline) was 92 % of control.
For CSc1n[nH]c(C(F)(F)F)n1, the T/C (dose: 30.0 mg/kg/injection, schedule: Q01DX005 (ip), vehicle: Klucel (hydroxypropylcellulose) (HPC)) was 105 % of control, the T/C [7] was 103 % of control and the T/C (dose: 120.0 mg/kg/injection, schedule: Q01DX005 (ip), vehicle: Klucel (hydroxypropylcellulose) (HPC)) was 95 % of control. For the same compound, the T/C (dose: 240.0 mg/kg/injection, schedule: Q01DX005 (ip), vehicle: Klucel (hydroxypropylcellulose) (HPC)) was 94 % of control.
With CCCn1c2nc(=O)[nH]c(=O)c-2[n+]([O-])c2ccccc21 the T/C (dose: 6.25 mg/kg/injection, schedule: Q01DX001 (ip), vehicle: saline with Tween-80) was 97 % of control and the T/C (dose: 12.5 mg/kg/injection, schedule: Q01DX001 (ip), vehicle: saline with Tween-80) was 98 % of control.
